Tests used:
TUNEL positive cells = test: TUNEL assay in cortex of ischemic rats; assay type: in vivo, Sprague-Dawley (SD) rats; conditions: rat cortex, 24 hr after focal ischemia
Method: Nine rats were randomly assigned into 3 treatment groups, three rats for each group. Group 1 rats were treated with saline and groups 2 and 3 treated with pipoxolan (10 mg/kg and 30 mg/kg, respectively). Focal ischemia was induced by occlusion of both CCA and the right MCA as previously described. Twenty four hours after focal ischemia, rats were deeply anesthetized by intraperitoneal injection of 50 mg/kg of zoletil® followed by intracardiac perfusion with 200 ml of 0.9% saline, followed by 4% paraformaldehyde in 0.1 M PBS and animals were decapitated. The percentage of positive TUNEL staining cells within areas of the cortex was estimated.

[1] = tested on: cerebral infarction area in the brain of ischemic rats; test: Transient focal cerebral ischemia-reperfusion model, infarct area (TTC staining); assay type: in vivo, Sprague-Dawley (SD) rats; conditions: 24 hr after reperfusion, vs control group
Method: Animals are male Sprague-Dawley (SD) rats, weighing 225-275 g and male ICR mice, weighing 25-30 g were purchased from BioLASCO Co. Ltd. (Taipei, Taiwan). All animals were fed regular chow and housed in standard cages at a constant temperature of 22±1° C. and relative humidity of 55±5% with 12 hr inverted light-dark cycle for 1 week prior to the experiments. Surgery was performed under zoletil® anesthesia. Five to six animals were used to obtain consistent data in each group. Pipoxolan was dissolved in dimethylsulfoxide (DMSO) and diluted in tissue culture medium before use. Focal ischemia was induced by occlusion of both common carotid arteries (CCA) and the right middle cerebral artery (MCA). Eighteen rats were randomly assigned to 3 treatment groups, six rats for each group. Group 1 rats were treated with saline and groups 2 and 3 treated with pipoxolan (10 mg/kg and 30 mg/kg, respectively). Rats were fasted overnight with free access to water. […] After 24 hr, all rats were alive and neurobehavioral deficits evaluation and infarct assessment were performed Twenty four hours following reperfusion, neurological function of rats was assessed. […] The image of each section was digitized and the infarct area was determined morphometrically using Image-Pro Plus 6.0 (Media Cybernetics, Md., USA).

[2] = tested on: carotid-ligation induced intimal hyperplasia; test: Carotid ligation model, intima/media ratio (hematoxylin-eosin staining); assay type: in vivo, ICR mice; conditions: mice, vs control group
Method: Male ICR mice, weighing 20 to 25 g, were used as a carotidligation model. Fifteen mice were randomly assigned to 3 treatment groups, five mice for each group. All mice were fasted overnight with free access to water, then anesthetized with zoletil® (25 mg/kg i.p.). Carotid ligation was performed by a midline neck incision and the left common carotid artery exposed. The carotid artery was completely ligated just proximal to the carotid bifurcation, and the right carotid artery served as a non-injured control artery. The incision was closed after ligation, and the animals were allowed to recover. On the day of carotid ligation, mice were randomized into 3 treatment groups and anesthetized as described. Group 1 mice were treated with saline and groups 2 and 3 treated with pipoxolan (10 mg/kg and 30 mg/kg, respectively). Subsequent pipoxolan and saline treatments were given by gastric gavage on the second day after carotid ligation and once daily for 28 days. […] Images were digitized and analyzed with Image-Pro software. The areas of the lumen, internal elastic lamina (IEL), and external elastic lamina (EEL) were determined by computerized planimetry. The intima area was calculated by subtracting the luminal from the IEL area, and media area was determined by subtracting the IEL area from the EEL area. The ratio of intima to media area (I/M ratio) was calculated and analyzed. […]

MEK = test: Western blot of MEK in PDGF-BB-stimulated VSMCs; assay type: cell-based
Method: (§1) The role of matrix metalloproteinase-2/9 (MMP-2/9) and the Ras/MEK/ERK signaling pathways were used to evaluate the effect of pipoxolan on VSMCs migration. The protein expression levels were determined by Western blot analysis. Each vertical bars represented mean±S.E. **p<0.01 and ***p<0.001 compared with control group (n=6 in each group).

p-ERK = test: Western blot of p-ERK in PDGF-BB-stimulated VSMCs; assay type: cell-based
Method: as §1

MMP-2 = test: Western blot of MMP-2 in PDGF-BB-stimulated VSMCs; assay type: cell-based
Method: as §1

Cl.O=C1OC(CCN2CCCCC2)OC1(c1ccccc1)c1ccccc1 (centres unmarked) [pipoxolan, 5,5-diphenyl-2-(2-piperidin-1-ylethyl)-1,3-dioxolan-4-one hydrochloride]
percent reduction of TUNEL positive cells (TUNEL positive cells; 10 mg/kg): 31.25%
percent reduction of TUNEL positive cells (TUNEL positive cells; 30 mg/kg): 46.88%
percent reduction of cerebral infarction ([1]; 10 mg/kg p.o. 1 hr prior to ischemia): 43.18%
percent reduction of cerebral infarction ([1]; 30 mg/kg p.o. 1 hr prior to ischemia): 73.43%
percent reduction of I/M ratio (intima/media) ([2]; 10 mg/kg p.o. once daily for 28 days after carotid ligation): 24.21%
percent reduction of I/M ratio (intima/media) ([2]; 30 mg/kg p.o. once daily for 28 days after carotid ligation): 47.20%
reduction of MEK protein level (MEK; 5 μM): 21.67%
reduction of MEK protein level (MEK; 10 μM): 21%
reduction of MEK protein level (MEK; 15 μM): 26.67%
reduction of p-ERK protein level (p-ERK; 5 μM): 50.33%
reduction of p-ERK protein level (p-ERK; 10 μM): 51.67%
reduction of p-ERK protein level (p-ERK; 15 μM): 75%
reduction of MMP-2 protein level (MMP-2; 10 μM): 12.4%
reduction of MMP-2 protein level (MMP-2; 15 μM): 24.4%

Source: patent publication US20150037399A1, “NOVEL USE OF PIPOXOLAN AND ITS PHARMACEUTICAL COMPOSITION” (China Medical University, priority 2013, published 2015)
